Assay results as given in patent US10330673B2, “Fluorescent chemical sensor for biological amines” (The Curators of the University of Missouri, priority 2013, dated 2019).

Assay: Fluorescence titration of sensor with norepinephrine
Format: binding
Settings: Table 2, analyte norepinephrine; benzene-based compounds I, excited at 488 nm
Method: (§1) Fluorescence spectra were recorded on a Shimadzu RF-5301 PC spectrofluorometer at 37° C. A 1 mg/mL stock solution of I-2 in DMSO was prepared. A stock solution of I-2 in buffer (1×10^−5 M, 25 mM HEPES, 50 mM Na2S2O3, pH=5.0) was prepared. Norepinephrine, dopamine, epinephrine, and glutamate stock solutions were prepared by separately dissolving the analytes at the concentration to be used in the titration with the buffered stock solution of I-2 (thus avoiding dilution of I-2 during the experiment). I-2 was titrated with aliquots of analyte solution. The sensor was excited at 488 nm with slit widths of 5 nm.
(§2) Fluorescence spectra were recorded on a Shimadzu RF-5301 PC spectrofluorometer at 37° C. A separate 1 mg/mL stock solution of each coumarin-3-aldehyde derivative in DMSO was prepared. An aqueous stock solution of each derivative (10 μM) in buffer (25 mM HEPES, 50 mM Na2S2O3, pH=5.0) was prepared. Norepinephrine, dopamine, glutamate, and epinephrine stock solutions were prepared by separately dissolving the solid analytes at the concentration to be used in the titration with the buffered stock solutions described above and thus, avoiding dilution of the sensor during the experiment. The benzene-based NS521 derivatives were excited at 488 nm. The thiophene-based derivatives were excited at 515 nm.

Row | Compound | F.E.
1 | CCN(CC)c1ccc2c(-c3ccccc3)c(C=O)c(=O)oc2c1 [Compound I-1] | 6.62
2 | CCN(CC)c1ccc2c(-c3ccc(OC)c(OC)c3)c(C=O)c(=O)oc2c1 [Compound I-3] | 4.11
3 | CCN(CC)c1ccc2c(-c3cc(OC)c(OC)c(OC)c3)c(C=O)c(=O)oc2c1 [Compound I-4] | 2.56
4 | CCN(CC)c1ccc2c(-c3cccc(C)c3)c(C=O)c(=O)oc2c1 [Compound I-5] | 6.59
5 | CCN(CC)c1ccc2c(-c3ccc(OC)c(C)c3)c(C=O)c(=O)oc2c1 [Compound I-6] | 3.89
6 | CCOC(=O)c1ccc(-c2c(C=O)c(=O)oc3cc(N(CC)CC)ccc23)cc1 [Compound I-7] | 1.79
7 | CCN(CC)c1ccc2c(-c3ccc(OC)c(F)c3)c(C=O)c(=O)oc2c1 [Compound I-8] | 6.36
8 | CCN(CC)c1ccc2c(-c3ccc(-c4ccccc4)cc3)c(C=O)c(=O)oc2c1 [Compound I-9] | 2.57

Same assay, conditions: Table 2, analyte norepinephrine; benzene-based compounds I, excited at 488 nm; pH 5.0, 37° C.

Row | Compound | Ka [M⁻¹]
9 | CCN(CC)c1ccc2c(-c3ccccc3)c(C=O)c(=O)oc2c1 [Compound I-1] | 68.68
10 | CCN(CC)c1ccc2c(-c3ccc(OC)c(OC)c3)c(C=O)c(=O)oc2c1 [Compound I-3] | 107.17
11 | CCN(CC)c1ccc2c(-c3cc(OC)c(OC)c(OC)c3)c(C=O)c(=O)oc2c1 [Compound I-4] | 159.08
12 | CCN(CC)c1ccc2c(-c3cccc(C)c3)c(C=O)c(=O)oc2c1 [Compound I-5] | 68.40
13 | CCN(CC)c1ccc2c(-c3ccc(OC)c(C)c3)c(C=O)c(=O)oc2c1 [Compound I-6] | 135.98
14 | CCOC(=O)c1ccc(-c2c(C=O)c(=O)oc3cc(N(CC)CC)ccc23)cc1 [Compound I-7] | 81.50
15 | CCN(CC)c1ccc2c(-c3ccc(OC)c(F)c3)c(C=O)c(=O)oc2c1 [Compound I-8] | 70.18
16 | CCN(CC)c1ccc2c(-c3ccc(-c4ccccc4)cc3)c(C=O)c(=O)oc2c1 [Compound I-9] | 148.79

Assay: Fluorescence titration of sensor with dopamine
Format: binding
Settings: Table 2, analyte dopamine; benzene-based compounds I, excited at 488 nm
Method: as §1, §2

Row | Compound | F.E.
17 | CCN(CC)c1ccc2c(-c3ccccc3)c(C=O)c(=O)oc2c1 [Compound I-1] | 3.23
18 | CCN(CC)c1ccc2c(-c3ccc(OC)c(OC)c3)c(C=O)c(=O)oc2c1 [Compound I-3] | 2.69
19 | CCN(CC)c1ccc2c(-c3cc(OC)c(OC)c(OC)c3)c(C=O)c(=O)oc2c1 [Compound I-4] | 1.62
20 | CCN(CC)c1ccc2c(-c3cccc(C)c3)c(C=O)c(=O)oc2c1 [Compound I-5] | 3.17
21 | CCN(CC)c1ccc2c(-c3ccc(OC)c(C)c3)c(C=O)c(=O)oc2c1 [Compound I-6] | 2.41
22 | CCOC(=O)c1ccc(-c2c(C=O)c(=O)oc3cc(N(CC)CC)ccc23)cc1 [Compound I-7] | 1.13
23 | CCN(CC)c1ccc2c(-c3ccc(OC)c(F)c3)c(C=O)c(=O)oc2c1 [Compound I-8] | 3.06
24 | CCN(CC)c1ccc2c(-c3ccc(-c4ccccc4)cc3)c(C=O)c(=O)oc2c1 [Compound I-9] | 1.62

Same assay, conditions: Table 2, analyte dopamine; benzene-based compounds I, excited at 488 nm; pH 5.0, 37° C.

Row | Compound | Ka [M⁻¹]
25 | CCN(CC)c1ccc2c(-c3ccccc3)c(C=O)c(=O)oc2c1 [Compound I-1] | 68.07
26 | CCN(CC)c1ccc2c(-c3ccc(OC)c(OC)c3)c(C=O)c(=O)oc2c1 [Compound I-3] | 177.46
27 | CCN(CC)c1ccc2c(-c3cc(OC)c(OC)c(OC)c3)c(C=O)c(=O)oc2c1 [Compound I-4] | 205.13
28 | CCN(CC)c1ccc2c(-c3cccc(C)c3)c(C=O)c(=O)oc2c1 [Compound I-5] | 74.13
29 | CCN(CC)c1ccc2c(-c3ccc(OC)c(C)c3)c(C=O)c(=O)oc2c1 [Compound I-6] | 192.05
30 | CCOC(=O)c1ccc(-c2c(C=O)c(=O)oc3cc(N(CC)CC)ccc23)cc1 [Compound I-7] | 107.45
31 | CCN(CC)c1ccc2c(-c3ccc(OC)c(F)c3)c(C=O)c(=O)oc2c1 [Compound I-8] | 92.94
32 | CCN(CC)c1ccc2c(-c3ccc(-c4ccccc4)cc3)c(C=O)c(=O)oc2c1 [Compound I-9] | 203.29

Assay: Fluorescence titration of sensor with glutamate
Format: binding
Settings: Table 2, analyte glutamate; benzene-based compounds I, excited at 488 nm
Method: as §1, §2

Row | Compound | F.E.
33 | CCN(CC)c1ccc2c(-c3ccccc3)c(C=O)c(=O)oc2c1 [Compound I-1] | 10.45
34 | CCN(CC)c1ccc2c(-c3ccc(OC)c(OC)c3)c(C=O)c(=O)oc2c1 [Compound I-3] | 6.56
35 | CCN(CC)c1ccc2c(-c3cc(OC)c(OC)c(OC)c3)c(C=O)c(=O)oc2c1 [Compound I-4] | 5.57
36 | CCN(CC)c1ccc2c(-c3cccc(C)c3)c(C=O)c(=O)oc2c1 [Compound I-5] | 9.97
37 | CCN(CC)c1ccc2c(-c3ccc(OC)c(C)c3)c(C=O)c(=O)oc2c1 [Compound I-6] | 6.36
38 | CCOC(=O)c1ccc(-c2c(C=O)c(=O)oc3cc(N(CC)CC)ccc23)cc1 [Compound I-7] | 4.68
39 | CCN(CC)c1ccc2c(-c3ccc(OC)c(F)c3)c(C=O)c(=O)oc2c1 [Compound I-8] | 9.31
40 | CCN(CC)c1ccc2c(-c3ccc(-c4ccccc4)cc3)c(C=O)c(=O)oc2c1 [Compound I-9] | 6.22

Same assay, conditions: Table 2, analyte glutamate; benzene-based compounds I, excited at 488 nm; pH 5.0, 37° C.

Row | Compound | Ka [M⁻¹]
41 | CCN(CC)c1ccc2c(-c3ccccc3)c(C=O)c(=O)oc2c1 [Compound I-1] | 9.43
42 | CCN(CC)c1ccc2c(-c3ccc(OC)c(OC)c3)c(C=O)c(=O)oc2c1 [Compound I-3] | 10.21
43 | CCN(CC)c1ccc2c(-c3cc(OC)c(OC)c(OC)c3)c(C=O)c(=O)oc2c1 [Compound I-4] | 10.25
44 | CCN(CC)c1ccc2c(-c3cccc(C)c3)c(C=O)c(=O)oc2c1 [Compound I-5] | 9.17
45 | CCN(CC)c1ccc2c(-c3ccc(OC)c(C)c3)c(C=O)c(=O)oc2c1 [Compound I-6] | 10.25
46 | CCOC(=O)c1ccc(-c2c(C=O)c(=O)oc3cc(N(CC)CC)ccc23)cc1 [Compound I-7] | 6.95
47 | CCN(CC)c1ccc2c(-c3ccc(OC)c(F)c3)c(C=O)c(=O)oc2c1 [Compound I-8] | 8.96
48 | CCN(CC)c1ccc2c(-c3ccc(-c4ccccc4)cc3)c(C=O)c(=O)oc2c1 [Compound I-9] | 13.84

Same assay, conditions: series 1 sensors, in words

Row | Compound | selectivity of fluorescent response for glutamate over dopamine and norepinephrine
49 | CCN(CC)c1ccc2c(-c3cc(OC)c(OC)c(OC)c3)c(C=O)c(=O)oc2c1 [Compound I-4] | best glutamate-selective sensor

Assay: Solubility in buffer for spectroscopic studies
Format: physicochemical
Settings: 25 mM HEPES, 50 mM Na2S2O3, pH 5.0; DMSO cosolvent required
Method: Steady-state fluorescence spectroscopic studies were performed using a Horiba Scientific Fluorolog-3 Model FL3C-111 spectrofluorometer and data was collected and analyzed using HJY FluorEssence™ 3.5.1.20 software package. UV-visible spectra were obtained on a Varian Cary 1E UV-visible spectrophotometer. A stock solution of each benzene- or thiophene-based coumarin-3-aldehyde derivative (1 μM) in buffer (25 mM HEPES, 50 mM Na2S2O3, pH=5.0) was prepared. Each solution contained 1% (v/v) DMSO as a cosolvent except as noted. The slit width was 2 nm for both excitation and emission. The bound benzene- and thiophene-coumarin-3-aldehyde derivatives contained 500 mM glutamate (pH=5.0).

Row | Compound | solubility in buffer
50 | CCOC(=O)c1ccc(-c2c(C=O)c(=O)oc3cc(N(CC)CC)ccc23)cc1 [Compound I-7] | solubility issues
51 | CCN(CC)c1ccc2c(-c3ccc(-c4ccccc4)cc3)c(C=O)c(=O)oc2c1 [Compound I-9] | solubility issues
